# Results taken from PubChem BioAssay AID248 (DTP/NCI, 2004).
# Several values for one entry are separate records, joined by “and”; a condition that tells them apart may be missing. Identical values can stand only once. Toxic doses and inconclusive results are not listed. Square brackets hold non-standard residues; d marks the D form. Peptide text beside a SMILES is read from it. ξ: configuration not given here. ξV = CC(C)C(N)C(=O)O
# Tested on: L1210 leukemia ip in BDF1 mice, survival T/C
# Assay: NCI In Vivo Anticancer Drug Screen. Data for tumor model L1210 Leukemia (intraperitoneal) in B6D2F1 (BDF1) mice
# Conditions: endpoint: mean survival time, higher = longer survival
# Method in brief: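 Survival endpoint. Drug-treated group vs vehicle group, expressed as T divided by C. Tumor passaged by transplantation.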
# [1] = dose: 100.0 mg/kg/injection, schedule: Q01DX009 (ip), vehicle: saline
# [2] = dose: 100.0 mg/kg/injection, schedule: Q04DX003 (ip), vehicle: saline with Tween-80
# [3] = dose: 200.0 mg/kg/injection, schedule: Q01DX009 (ip), vehicle: saline
# [4] = dose: 200.0 mg/kg/injection, schedule: Q04DX003 (ip), vehicle: saline with Tween-80
# [5] = dose: 400.0 mg/kg/injection, schedule: Q01DX009 (ip), vehicle: saline
# [6] = dose: 400.0 mg/kg/injection, schedule: Q04DX003 (ip), vehicle: saline with Tween-80
# [7] = dose: 100.0 mg/kg/injection, schedule: Q01DX009 (ip), vehicle: saline with Tween-80
# [8] = dose: 200.0 mg/kg/injection, schedule: Q01DX009 (ip), vehicle: saline with Tween-80
# [9] = dose: 100.0 mg/kg/injection, schedule: Q01DX009 (ip), vehicle: Klucel (hydroxypropylcellulose) (HPC)
# [10] = dose: 200.0 mg/kg/injection, schedule: Q01DX009 (ip), vehicle: Klucel (hydroxypropylcellulose) (HPC)
# [11] = dose: 400.0 mg/kg/injection, schedule: Q01DX009 (ip), vehicle: Klucel (hydroxypropylcellulose) (HPC)
# [12] = dose: 100.0 mg/kg/injection, schedule: Q01DX001 (ip), vehicle: saline
# [13] = dose: 200.0 mg/kg/injection, schedule: Q01DX001 (ip), vehicle: saline
# [14] = dose: 400.0 mg/kg/injection, schedule: Q01DX001 (ip), vehicle: saline
# [15] = dose: 100.0 mg/kg/injection, schedule: Q04DX003 (ip), vehicle: saline
# [16] = dose: 200.0 mg/kg/injection, schedule: Q04DX003 (ip), vehicle: saline
# [17] = dose: 400.0 mg/kg/injection, schedule: Q04DX003 (ip), vehicle: saline
# [18] = dose: 100.0 mg/kg/injection, schedule: Q01DX001 (ip), vehicle: saline with Tween-80
# [19] = dose: 200.0 mg/kg/injection, schedule: Q01DX001 (ip), vehicle: saline with Tween-80
# [20] = dose: 400.0 mg/kg/injection, schedule: Q01DX001 (ip), vehicle: saline with Tween-80
# [21] = dose: 400.0 mg/kg/injection, schedule: Q01DX009 (ip), vehicle: saline with Tween-80
# [22] = dose: 100.0 mg/kg/injection, schedule: Q04DX002 (ip), vehicle: saline
# [23] = dose: 200.0 mg/kg/injection, schedule: Q04DX002 (ip), vehicle: saline
# [24] = dose: 100.0 mg/kg/injection, schedule: Q04DX003 (ip), vehicle: Klucel (hydroxypropylcellulose) (HPC)
# [25] = dose: 200.0 mg/kg/injection, schedule: Q04DX003 (ip), vehicle: Klucel (hydroxypropylcellulose) (HPC)
# [26] = dose: 400.0 mg/kg/injection, schedule: Q04DX003 (ip), vehicle: Klucel (hydroxypropylcellulose) (HPC)
# [27] = dose: 50.0 mg/kg/injection, schedule: Q01DX009 (ip), vehicle: Klucel (hydroxypropylcellulose) (HPC)
smiles,measurement,setting,value
CN1CCN=C1c1ccc(NC(=O)c2ccc(C(=O)Nc3ccc(C4=NCCN4C)cc3)c(N)c2)cc1,T/C,"dose: 3.0 mg/kg/injection, schedule: Q01DX Z (ip), vehicle: carboxymethylcellulose (CMC)",242 % of control
same,T/C,"dose: 6.0 mg/kg/injection, schedule: Q01DX Z (ip), vehicle: carboxymethylcellulose (CMC)",159 % of control
same,T/C,"dose: 6.0 mg/kg/injection, schedule: Q01DX Z (oral), vehicle: water",98 % of control
same,T/C,"dose: 12.0 mg/kg/injection, schedule: Q01DX Z (ip), vehicle: carboxymethylcellulose (CMC)",103 % of control
same,T/C,"dose: 12.0 mg/kg/injection, schedule: Q01DX Z (oral), vehicle: water",95 % of control
same,T/C,"dose: 24.0 mg/kg/injection, schedule: Q01DX Z (oral), vehicle: water",98 % of control
same,T/C,"dose: 48.0 mg/kg/injection, schedule: Q01DX Z (oral), vehicle: water",101 % of control
Nc1nc[nH]c(=O)c1NC=O,T/C,[1],94 % of control
same,T/C,[2],97 % of control
same,T/C,[3],100 % of control
same,T/C,[4],98 % of control
same,T/C,[5],104 % of control
same,T/C,[6],101 % of control
COc1cc(/C=N\NC(=O)OC(C)(C)C)cc(OC)c1OC,T/C,"dose: 50.0 mg/kg/injection, schedule: Q01DX009 (ip), vehicle: saline with Tween-80",95 % of control
same,T/C,[7],97 % of control
same,T/C,[2],87 % of control
same,T/C,[8],97 % of control
same,T/C,[4],91 % of control
N#CC1(c2ccccc2)OC1(c1ccccc1)c1ccccc1 (stereo not given),T/C,[9],89 % of control
same,T/C,"dose: 100.0 mg/kg/injection, schedule: Q04DX002 (ip), vehicle: Klucel (hydroxypropylcellulose) (HPC)",88 % of control
same,T/C,[10],91 % of control
same,T/C,"dose: 200.0 mg/kg/injection, schedule: Q04DX002 (ip), vehicle: Klucel (hydroxypropylcellulose) (HPC)",92 % of control
same,T/C,[11],88 % of control
Clc1ccc(Cl)c(SSc2cc(Cl)ccc2Cl)c1,T/C,[12],101 % of control
same,T/C,[13],98 % of control
same,T/C,[14],89 % of control
O=S(=O)(/C=C\c1ccccc1)N1CCCc2ccccc21,T/C,[12],106 % of control
same,T/C,[15],98 % of control
same,T/C,[13],98 % of control
same,T/C,[16],102 % of control
same,T/C,[14],101 % of control
same,T/C,[17],98 % of control
CC(=O)n1c(O)c(N=NC(=N)N[N+](=O)[O-])c2ccccc21,T/C,[18],97 % of control
same,T/C,"dose: 132.0 mg/kg/injection, schedule: Q01DX001 (ip), vehicle: saline with Tween-80",101 % of control
same,T/C,[19],97 % of control
same,T/C,"dose: 300.0 mg/kg/injection, schedule: Q01DX001 (ip), vehicle: saline with Tween-80",106 % of control
same,T/C,[20],101 % of control
O=C(Nc1cc([N+](=O)[O-])ccc1Cl)Nc1ccccc1C(F)(F)F,T/C,[9],104 % of control
same,T/C,[10],94 % of control
same,T/C,[11],93 % of control
C[Si](C)(CCCOCC1CO1)O[Si](C)(C)CCCOCC1CO1 (stereo not given),T/C,[7],97 % of control
same,T/C,[2],95 % of control
same,T/C,[8],97 % of control
same,T/C,[4],89 % of control
same,T/C,[21],92 % of control
same,T/C,[6],87 % of control
CC(C)C(NC(=O)CN)C(=O)O (stereo not given) (H-Gly-[ξV]-OH),T/C,"dose: 50.0 mg/kg/injection, schedule: Q04DX002 (ip), vehicle: saline",107 % of control
same,T/C,[1],98 % of control
same,T/C,[22],110 % of control
same,T/C,[15],97 % of control
same,T/C,[3],111 % of control
same,T/C,[23],103 % of control
same,T/C,[16],124 % of control
same,T/C,[5],112 % of control
same,T/C,[17],97 % of control
CC(=O)OC1COC(n2cnc3c(=S)nc(N)[nH]c32)C(OC(C)=O)C1OC(C)=O (stereo not given),T/C,[12],100 % of control
same,T/C,[13],97 % of control
same,T/C,[14],97 % of control
C#CC(OC(=O)NC(C(=O)OC)C(C)C)(c1ccccc1)c1ccccc1 (stereo not given),T/C,"dose: 50.0 mg/kg/injection, schedule: Q04DX002 (ip), vehicle: saline with Tween-80",100 % of control
same,T/C,"dose: 100.0 mg/kg/injection, schedule: Q04DX002 (ip), vehicle: saline with Tween-80",105 % of control and 114 % of control
same,T/C,"dose: 200.0 mg/kg/injection, schedule: Q04DX002 (ip), vehicle: saline with Tween-80",122 % of control
CCN(Cc1ccccc1)c1cc(=O)[nH]c(=O)[nH]1,T/C,"dose: 48.0 mg/kg/injection, schedule: Q01DX001 (ip), vehicle: Klucel (hydroxypropylcellulose) (HPC)",100 % of control
same,T/C,"dose: 96.0 mg/kg/injection, schedule: Q01DX001 (ip), vehicle: Klucel (hydroxypropylcellulose) (HPC)",102 % of control
same,T/C,"dose: 192.0 mg/kg/injection, schedule: Q01DX001 (ip), vehicle: Klucel (hydroxypropylcellulose) (HPC)",97 % of control
CCOC(=O)c1cnc(SC)nc1Nc1ccccc1Br,T/C,[24],92 % of control
same,T/C,[25],97 % of control
same,T/C,[26],98 % of control
CCCCCCCCC(=O)N1C(C)CCCC1C (stereo not given),T/C,[22],111 % of control
same,T/C,[23],114 % of control
same,T/C,"dose: 400.0 mg/kg/injection, schedule: Q04DX002 (ip), vehicle: saline",100 % of control
C/C(=N/NC(N)=S)c1ccncc1,T/C,"dose: 2.5 mg/kg/injection, schedule: Q01DX009 (ip), vehicle: Klucel (hydroxypropylcellulose) (HPC)",106 % of control
same,T/C,"dose: 5.0 mg/kg/injection, schedule: Q01DX009 (ip), vehicle: Klucel (hydroxypropylcellulose) (HPC)",103 % of control
same,T/C,"dose: 10.0 mg/kg/injection, schedule: Q01DX009 (ip), vehicle: Klucel (hydroxypropylcellulose) (HPC)",94 % of control
O=c1[nH]cc(Nc2ccccc2)c(=O)[nH]1,T/C,[24],95 % of control
same,T/C,[25],92 % of control
same,T/C,[26],88 % of control
CSc1cnnc2ccccc12,T/C,"dose: 25.0 mg/kg/injection, schedule: Q01DX009 (ip), vehicle: Klucel (hydroxypropylcellulose) (HPC)",110 % of control
same,T/C,[27],115 % of control
CC/C(I)=C(/CC)S(=O)(=O)c1ccc(C)cc1,T/C,[12],101 % of control
same,T/C,[7],98 % of control
same,T/C,[13],103 % of control
same,T/C,[8],102 % of control
same,T/C,[14],111 % of control
same,T/C,[21],98 % of control
Nc1nnnn1C(=O)NCCCl,T/C,"dose: 100.0 mg/kg/injection, schedule: Q01DX001 (ip), vehicle: Klucel (hydroxypropylcellulose) (HPC)",111 % of control
same,T/C,"dose: 200.0 mg/kg/injection, schedule: Q01DX001 (ip), vehicle: Klucel (hydroxypropylcellulose) (HPC)",97 % of control
same,T/C,"dose: 400.0 mg/kg/injection, schedule: Q01DX001 (ip), vehicle: Klucel (hydroxypropylcellulose) (HPC)",94 % of control
CN(C)CCC(O)(Cc1ccccc1)c1ccccc1 (stereo not given),T/C,[27],95 % of control
same,T/C,[9],101 % of control
same,T/C,[24],95 % of control
same,T/C,[25],101 % of control
O=C(Nc1ccc(S(=O)(=O)F)cc1)/C(=C/c1ccc([N+](=O)[O-])cc1)CCc1ccccc1,T/C,[2],105 % of control
same,T/C,[4],97 % of control
same,T/C,[6],94 % of control
COC(=O)C1OC1c1cc(OC)ccc1OC (stereo not given),T/C,[18],102 % of control
same,T/C,[15],102 % of control
same,T/C,[19],103 % of control
same,T/C,[16],100 % of control
same,T/C,[20],89 % of control
same,T/C,[17],97 % of control
